Results from PMC10669220, “In Vitro α-Glucosidase and α-Amylase Inhibition, Cytotoxicity and Free Radical Scavenging Profiling of the 6-Halogeno and Mixed 6,8-Dihalogenated 2-Aryl-4-methyl-1,2-dihydroquinazoline 3-Oxides” (Antioxidants, 2023).

How the values were obtained:
[1] = test system: nitric oxide synthase (NOS); assay: Kinetic study on inhibitory activity of NOS; format: biochemical; conditions: seven concentrations 1-10.0 μM; Figure 3; read-out: IC50 NOS inhibition (kinetic study)
Description: (§1) A nitric oxide synthase (NOS) assay was performed following the procedure recommended by the manufacturer as outlined in the screening kit (Catalogue No. EINO-100; EnzyChrom). Various concentrations (1, 2.5, 4.0, 5.5, 7.0, 8.5 and 10.0 µM) of the compounds 3i and the reference standard, DPI, were prepared. The enzyme solution (12.5 U/mL NOS, 10 uL), assay buffer (25 µL) and test samples (5 µL) were incubated at room temperature for 15 min. After pre-incubation, 10 µL of reaction mix was added and incubated at 37 °C for 60 min. A 200 µL quantity of NO detection reagent was added, the detection reaction was run at 37 °C for 60 min, and absorbance was determined at a wavelength of 540 nm using an Elisa plate reader (Varioskan Flash, ThermoFisher Scientific, Vantaa, Finland). The average of three readings was used to calculate the NOS percentage inhibition using the formula in Section 2.6.3

[2] = molecular target: superoxide dismutase (SOD); assay: Superoxide dismutase (SOD) inhibitory assay (SOD assay kit-WST); format: biochemical; conditions: duplicate; 1-50 µM; 25 °C, 30 min; read-out: IC50 SOD inhibition
Description: The antioxidant activity of the compounds 3a, 3c, 3f, 3i, 3l, 3n and 3p against superoxide radicals was assessed via enzymatic assay in vitro using the SOD assay kit-WST according to the manufacturer’s instructions (Sigma-Aldrich®). The reaction mixtures in the SOD kit were combined with 20 μL of working solution of the samples in a 96-well plate. Plates were gently shaken and then incubated at 25 °C for 30 min. The reference positive control, diphenyleneiodonium (DPI), and the compounds were tested at 01, 5, 10, 25 and 50 µM in duplicates. The inhibition activity of SOD on the reaction of […] generated the superoxide with a tetrazolium salt, which was then determined by measuring the absorbance of the mixtures at a wavelength of 450 nm using an Elisa plate reader (Varioskan Flash, ThermoFisher Scientific, Vantaa, Finland). The SOD activity values obtained used to calculate the percentage of inhibition. % SOD activity=ODx− ODy/ODx ×100% where ODx is the absorbance of the blank (untreated SOD) and ODy is the absorbance of the sample (treated SOD). All tests were performed in duplicate.

[3] = test system: NOS of semipurified enzyme preparation or activated macrophage cytosol; conditions: 30 min. incubation with 10 μM DPI at 37 °C; cited from earlier work
[4] = DPPH radical scavenging assay; conditions: mean ± SD; 45 min in the dark; 512 nm
Description: The DPPH radical scavenging assay was conducted following the procedure described in our previous study. The test compounds and ascorbic acid at various concentrations (ranging from 0 µM to 50 µM) in DMSO were mixed with a solution of DPPH (0.20 mM) in methanol and incubated in the dark for 45 min. Five absorbance readings were recorded at 512 nm using an Elisa plate reader (Varioskan Flash, ThermoFisher Scientific, Vantaa, Finland). The experiment was carried out in triplicate, and averaged values from the absorbance readings were used to determine the IC50 and standard deviation values in GraphPad prism from nonlinear regression dose–response curves.

[5] = test system: NO generated from nitric oxide synthase (NOS); assay: Inhibitory activity against NO generated from NOS (EnzyChrom kit); format: biochemical; conditions: mean ± SD, 1-50 µM
Description: as §1, with “5, 10, 25” for “2.5, 4.0, 5.5, 7.0, 8.5”, “50” for “10.0”, “3a, 3c, 3f, 3i, 3l, 3n and 3p” for “3i”, “ascorbic acid,” for “DPI,”, “µL),” for “uL),”, “following formula: % Inhibition=1−ΔOD Test Compd/ΔOD No Inhibitor ×100%” for “formula in Section 2.6.3”
The IC50 values and standard deviation values were determined from nonlinear regression dose–response curve and compared with the results in GraphPad prism.

[6] = test system: breast cancer (MCF-7) cell line; assay: MTT cytotoxicity assay, MCF-7; conditions: for Cell viability percentage, MCF-7: Table S2; for IC50: Homo sapiens, MCF7, read-out: IC50 MCF-7
[7] = test system: lung cancer (A549) cell line; assay: MTT cytotoxicity assay, A549; conditions: for Cell viability percentage, A549: Table S3; for IC50: Homo sapiens, A549, read-out: IC50 A549
[8] = NO free radical scavenging assay (sodium nitroprusside/Griess); conditions: mean ± SD; sodium nitroprusside, Griess reagent, 550 nm
Description: The assay was conducted following the method described in our previous study. A mixture of 10 mM sodium nitroprusside (20 µL), phosphate buffer (5 µL) and the test compound (5 µL) were incubated at 25 °C in a 96-well plate for 2.5 h. After incubation, 20 µL of Griess reagent (1.00 g of sulfanilic acid + 0.10 g naphthylethylene diamine dihydrochloride) was added to the previous mixture and allowed to stand for 30 min. […] Each experiment was performed in triplicate, and the average was taken. The average obtained from the absorbance readings was used to calculate the IC50 values in GraphPad prism from nonlinear regression dose–response curves.

[9] = MTT cytotoxicity assay, HEK293-T; conditions: human, HEK293-T cells
[10] = test system: human embryonic kidney (HEK293-T) cell line; assay: MTT cytotoxicity assay, HEK293-T; conditions: Homo sapiens, HEK-293T, read-out: IC50 Hek293-T
[11] = molecular target: T1, α-Glucosidase type 1 from baker's yeast (Saccharomyces cerevisiae, UniProt P53341); assay: biochemical; conditions: IC50 α-Glucosidase, mean ± SD, triplicate; tested at 1, 5, 10, 25, 50 µM
T1 construct: purchased Sigma Aldrich (Pty) Ltd. G5003
T1 sequence (P53341 whole entry): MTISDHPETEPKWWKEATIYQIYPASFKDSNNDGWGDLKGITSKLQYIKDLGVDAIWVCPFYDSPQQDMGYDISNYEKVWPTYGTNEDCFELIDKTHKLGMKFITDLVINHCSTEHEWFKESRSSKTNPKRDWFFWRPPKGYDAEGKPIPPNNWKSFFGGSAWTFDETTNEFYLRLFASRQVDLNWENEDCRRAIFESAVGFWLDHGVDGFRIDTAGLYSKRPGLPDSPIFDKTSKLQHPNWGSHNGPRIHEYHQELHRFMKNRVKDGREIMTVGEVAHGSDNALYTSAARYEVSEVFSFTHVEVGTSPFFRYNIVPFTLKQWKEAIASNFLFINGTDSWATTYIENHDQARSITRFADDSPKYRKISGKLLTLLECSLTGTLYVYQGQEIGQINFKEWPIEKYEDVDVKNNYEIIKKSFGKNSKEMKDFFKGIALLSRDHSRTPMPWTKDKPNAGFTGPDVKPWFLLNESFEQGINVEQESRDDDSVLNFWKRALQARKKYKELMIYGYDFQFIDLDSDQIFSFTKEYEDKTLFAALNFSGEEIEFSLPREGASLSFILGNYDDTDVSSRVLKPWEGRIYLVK
Description: The assay was conducted in triplicate following a method described in our previous study. […] After pre-incubation, 17 µL of 2 mM PNP-G was added. The absorbances were recorded in a 96-well microplate at 400 nm using an Elisa plate reader (Varioskan Flash, ThermoFischer Scientific, Vantaa, Finland). The average values obtained from the readings were used to determine the IC50 and standard deviation values using a GraphPad Prism software (Version 8, GraphPad Software Inc., San Diego, CA, USA). The average values obtained from the absorbance readings were used to determine the IC50 and standard deviation values in GraphPad prism from nonlinear regression dose–response curves.

[12] = molecular target: T2, human α-amylase (Homo sapiens, UniProt P04746); assay: α-amylase inhibitor screening kit assay; format: biochemical; conditions: mean ± SD, triplicate; tested at 1, 5, 10, 25, 50 µM
T2 construct: purchased Abcam ab283391
T2 sequence (P04746 16-511): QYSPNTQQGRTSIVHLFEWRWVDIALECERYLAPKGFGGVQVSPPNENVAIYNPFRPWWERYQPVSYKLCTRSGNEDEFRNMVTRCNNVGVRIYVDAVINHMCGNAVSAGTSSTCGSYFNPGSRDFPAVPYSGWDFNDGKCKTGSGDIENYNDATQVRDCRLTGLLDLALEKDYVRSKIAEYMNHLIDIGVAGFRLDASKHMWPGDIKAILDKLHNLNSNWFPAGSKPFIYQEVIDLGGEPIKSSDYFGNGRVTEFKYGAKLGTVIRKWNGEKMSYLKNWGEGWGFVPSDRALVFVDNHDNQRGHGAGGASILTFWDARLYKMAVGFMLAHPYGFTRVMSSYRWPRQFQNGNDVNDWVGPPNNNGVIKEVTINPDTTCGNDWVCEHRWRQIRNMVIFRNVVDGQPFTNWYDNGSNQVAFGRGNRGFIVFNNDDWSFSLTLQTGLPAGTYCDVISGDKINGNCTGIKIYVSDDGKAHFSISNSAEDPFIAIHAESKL
Description: The α-amylase assay was performed in triplicate, using a 96-well plate following the procedure recommended by the manufacturer as outlined in the α-amylase inhibitor Screening Kit (Catalogue No. ab283391; Abcam). […] The average values obtained from the absorbance readings were used to determine the IC50 and standard deviation values in GraphPad prism from nonlinear regression dose–response curves.

SMILES	IC50 [2]	IC50 [4]	IC50 [5]	Cell viability percentage, MCF-7 ([6]; Conc. 1 (µM per method))	Cell viability percentage, MCF-7 ([6]; Conc. 5 (µM per method))	Cell viability percentage, MCF-7 ([6]; Conc. 10 (µM per method))	Cell viability percentage, MCF-7 ([6]; Conc. 25 (µM per method))	Cell viability percentage, MCF-7 ([6]; Conc. 50 (µM per method))	IC50 [6]	Cell viability percentage, A549 ([7]; Conc. 1 (µM per method))	Cell viability percentage, A549 ([7]; Conc. 5 (µM per method))	Cell viability percentage, A549 ([7]; Conc. 10 (µM per method))	Cell viability percentage, A549 ([7]; Conc. 25 (µM per method))	Cell viability percentage, A549 ([7]; Conc. 50 (µM per method))	IC50 [7]	melting point	IC50 [8]	viability at 1 µM [9]	viability at 5 µM [9]	viability at 10 µM [9]	other results
c1ccc2c(c1)[I+]c1ccccc1-2 [DPI, diphenyleneiodonium chloride, reference compound]	0.71 ± 0.03 µM																				IC50 [1]: 3 ± 0.007 µM; NOS activity after incubation with inhibitor [3]: irreversibly inhibited
COc1ccc(C2Nc3c(Br)cc(I)cc3C(C)=[N+]2[O-])cc1 (stereo not drawn) [Compound 3p]	8.3 ± 0.04 µM	60.03 ± 0.014 µM	15.51 ± 0.009 µM	72,4624%	70,8112%	59,2339%	43,212%	27,8817%	13.47 ± 0.06 µM	45,0433%	44,7771%	43,6627%	42,5649%	39,3879%	12.24 ± 0.02 µM	173 to 174 °C	5.46 ± 0.004 µM	83.4%	81.4%	75.8%	viability at 25 µM [9]: 74.7%; viability at 50 µM [9]: 18.4%; IC50 [10]: 59.02 ± 0.02 µM; IC50 [11]: 0.78 ± 0.05 µM; IC50 [12]: 73.66 ± 0.02 µM
CC1=[N+]([O-])C(c2ccc(F)cc2)Nc2c(Br)cc(I)cc21 (stereo not drawn) [Compound 3n]	6.2 ± 0.12 µM	6.84 ± 0.009 µM	3.5 ± 0.01 µM	34,8969%	33,2335%	31,9528%	31,7365%	30,1896%	14.79 ± 0.1 µM	79,9753%	73,2703%	62,0205%	43,4807%	30,3521%	17.22 ± 0.07 µM	125 to 127 °C	0.88 ± 0.004 µM	75.1%	70.1%	54.1%	viability at 25 µM [9]: 39.6%; viability at 50 µM [9]: 20.5%; IC50 [10]: 32.42 ± 0.06 µM; IC50 [11]: 43.23 ± 0.05 µM; IC50 [12]: 4.71 ± 0.01 µM
CC1=[N+]([O-])C(c2ccc(F)cc2)Nc2ccc(I)cc21 (stereo not drawn) [Compound 3f]	11.59 ± 0.08 µM	23.66 ± 0.009 µM	4.7 ± 0.004 µM	69,8879%	62,4071%	44,9558%	32,649%	23,6814%	19.01 ± 0.04 µM	82,3715%	71,9204%	61,143%	44,212%	32,7708%	13.71 ± 0.11 µM	180 to 182 °C	6.74 ± 0.002 µM	72%	55.2%	47.8%	viability at 25 µM [9]: 36.7%; viability at 50 µM [9]: 14.7%; IC50 [10]: 22.32 ± 0.08 µM; IC50 [11]: 9.27 ± 0.02 µM; IC50 [12]: 0.64 ± 0.01 µM
